Common to all, as to assay type: cell-based
In assay [1] the test system is Mino cells. In words: Antiproliferative effect, MTS cell viability assay, Mino cells. The following applies: Homo sapiens, MINO, Mino mantle cell lymphoma cells; read-out: IC50 (anti-proliferation) Mino cells. In short, it runs like this:
(§1)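 Mino and JeKo-1 mantle B-cell lymphoma lines were exposed to compound at 0, 0.001, 0.01, 0.1, 1 and 10 μM for 72 h. Viability was read by MTS reduction to formazan, measured as absorbance at 490 nm.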
In general terms: Tetrazolium dyes change colour on reduction, which living cells bring about.

Assay [2] has as its target BTK (Homo sapiens, UniProt Q06187). In words: BTK degradation, DC50 and Dmax of Table 1 (cell line not given). Further details: endogenous in cells. The settings on record: for DC50: concentration giving 50% reduction of BTK expression level.
The subject of assay [3] is JeKo-1 cells. In words: Antiproliferative effect, MTS cell viability assay, JeKo-1 cells. The settings on record: Homo sapiens; JeKo-1 mantle cell lymphoma cells; read-out: IC50 (anti-proliferation) JeKO-1 cells. Summed up: as §1

This note sets out measurements from US12139492B2 (Endotarget Inc., priority 2021, dated 2024).

Sequence of BTK (Q06187 whole entry): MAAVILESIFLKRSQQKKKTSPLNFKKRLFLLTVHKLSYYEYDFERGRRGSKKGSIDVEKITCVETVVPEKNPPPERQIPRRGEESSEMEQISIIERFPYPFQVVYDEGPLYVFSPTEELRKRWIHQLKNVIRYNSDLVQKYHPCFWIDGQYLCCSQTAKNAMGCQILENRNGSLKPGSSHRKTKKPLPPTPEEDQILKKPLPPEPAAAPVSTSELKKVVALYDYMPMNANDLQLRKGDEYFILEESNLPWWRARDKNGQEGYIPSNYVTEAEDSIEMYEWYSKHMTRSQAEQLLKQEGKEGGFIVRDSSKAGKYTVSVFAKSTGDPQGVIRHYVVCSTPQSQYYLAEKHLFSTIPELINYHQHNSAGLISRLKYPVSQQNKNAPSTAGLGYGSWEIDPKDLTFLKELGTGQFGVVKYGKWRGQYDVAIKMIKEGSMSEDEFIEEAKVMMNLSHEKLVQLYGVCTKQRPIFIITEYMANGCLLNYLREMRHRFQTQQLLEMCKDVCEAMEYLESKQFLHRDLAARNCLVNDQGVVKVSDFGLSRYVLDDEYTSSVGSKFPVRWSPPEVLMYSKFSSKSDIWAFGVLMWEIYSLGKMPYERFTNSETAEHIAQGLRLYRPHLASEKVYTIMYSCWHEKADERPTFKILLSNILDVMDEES

As for `Nc1ncnc2c1c(-c1ccc(Oc3ccccc3)cc1)nn2C1CCN(C(=O)N2CCN(CCN3CCC(c4ccc5c(c4)C(=O)N(C4CCC(=O)NC4=O)C5=O)CC3)CC2)CC1` (stereo not shown) [Compound 99, 5-(1-(2-(4-(4-(4-amino-3-(4-phenoxyphenyl)-1H-pyrazolo[3,4-d]pyrimidin-1-yl)piperidine-1-carbonyl)piperazin-1-yl)ethyl)piperidin-4-yl)-2-(2,6-dioxopiperidin-3-yl)isoindoline-1,3-dione], the IC50 in assay [1] was more than 10000 nM. In assay [2], the Dmax is more than 90% and the DC50 is 10 to 50 nM. Moreover, the IC50 in assay [3] fell in the range of 1000 to 10000 nM.

Turning to `Nc1ncnc2c1c(-c1ccc(Oc3ccccc3)cc1)nn2C1CCN(C(=O)N2CCN(CCN3CCC(c4ccc5c(c4)CN(C4CCC(=O)NC4=O)C5=O)CC3)CC2)CC1` (stereo not shown) [Compound 100, 3-(5-(1-(2-(4-(4-(4-amino-3-(4-phenoxyphenyl)-1H-pyrazolo[3,4-d]pyrimidin-1-yl)piperidine-1-carbonyl)piperazin-1-yl)ethyl)piperidin-4-yl)-1-oxoisoindolin-2-yl)piperidine-2,6-dione], the IC50 in assay [1] is 1000 to 10000 nM. In assay [2], this compound had a Dmax of more than 90% and a DC50 of 10 to 50 nM. In assay [3], the IC50 was 1000 to 10000 nM.

For the compound `Nc1ncnc2c1c(-c1ccc(Oc3ccccc3)cc1)nn2C1CCN(C(=O)N2CCC(CCC3CCN(c4ccc5c(c4)C(=O)N(C4CCC(=O)NC4=O)C5=O)CC3)CC2)CC1` (stereo not shown) [Compound 101, 5-(4-(2-(1-(4-(4-amino-3-(4-phenoxyphenyl)-1H-pyrazolo[3,4-d]pyrimidin-1-yl)piperidine-1-carbonyl)piperidin-4-yl)ethyl)piperidin-1-yl)-2-(2,6-dioxopiperidin-3-yl)isoindoline-1,3-dione], in assay [1], the IC50 was more than 10000 nM. In assay [2], this compound displayed a Dmax of more than 90% and a DC50 of 10 to 50 nM. The IC50 in assay [3] was more than 10000 nM.

As for `Nc1ncnc2c1c(-c1ccc(Oc3ccccc3)cc1)nn2C1CCN(C(=O)N2CCC(CCC3CCN(c4ccc5c(c4)CN(C4CCC(=O)NC4=O)C5=O)CC3)CC2)CC1` (stereo not shown) [Compound 102, 3-(5-(4-(2-(1-(4-(4-amino-3-(4-phenoxyphenyl)-1H-pyrazolo[3,4-d]pyrimidin-1-yl)piperidine-1-carbonyl)piperidin-4-yl)ethyl)piperidin-1-yl)-1-oxoisoindolin-2-yl)piperidine-2,6-dione], the IC50 in assay [1] was 1000 to 10000 nM. In assay [2], the greatest degradation seen (Dmax) is more than 90% and the DC50 lay within 10 to 50 nM. Besides, the IC50 in assay [3] is more than 10000 nM.

Regarding `Nc1ncnc2c1c(-c1ccc(Oc3ccccc3)cc1)nn2C1CCN(C(=O)N2CCC(CCN3CCC(c4ccc5c(c4)C(=O)N(C4CCC(=O)NC4=O)C5=O)CC3)CC2)CC1` (stereo not shown) [Compound 103, 5-(1-(2-(1-(4-(4-amino-3-(4-phenoxyphenyl)-1H-pyrazolo[3,4-d]pyrimidin-1-yl)piperidine-1-carbonyl)piperidin-4-yl)ethyl)piperidin-4-yl)-2-(2,6-dioxopiperidin-3-yl)isoindoline-1,3-dione], the IC50 is more than 10000 nM in assay [1] and 1000 to 10000 nM in assay [3]. The compound also displayed a Dmax in assay [2] of more than 90%. The same compound registered a DC50 in assay [2] of 10 to 50 nM.

On to `Nc1ncnc2c1c(-c1ccc(Oc3ccccc3)cc1)nn2C1CCN(C(=O)N2CCC(CCN3CCC(c4ccc5c(c4)CN(C4CCC(=O)NC4=O)C5=O)CC3)CC2)CC1` (stereo not shown) [Compound 104, 3-(5-(1-(2-(1-(4-(4-amino-3-(4-phenoxyphenyl)-1H-pyrazolo[3,4-d]pyrimidin-1-yl)piperidine-1-carbonyl)piperidin-4-yl)ethyl)piperidin-4-yl)-1-oxoisoindolin-2-yl)piperidine-2,6-dione], for which the IC50 in assay [1] lay in the range of 1000 to 10000 nM. Also, in assay [2], the Dmax is more than 90% and the DC50 was in the range of 10 to 50 nM. In assay [3], the IC50 was 1000 to 10000 nM.

`Nc1ncnc2c1c(-c1ccc(Oc3ccccc3)cc1)nn2[C@@H]1CCCN(C(=O)N2CCC(CCCN3CCN(c4ccc5c(c4)C(=O)N(C4CCC(=O)NC4=O)C5=O)CC3)CC2)C1` (stereo partly drawn) [Compound 105, 5-(4-(3-(1-((R)-3-(4-amino-3-(4-phenoxyphenyl)-1H-pyrazolo[3,4-d]pyrimidin-1-yl)piperidine-1-carbonyl)piperidin-4-yl)propyl)piperazin-1-yl)-2-(2,6-dioxopiperidin-3-yl)isoindoline-1,3-dione]: the IC50 in assay [1] was more than 10000 nM. In assay [2], this compound registered a Dmax of more than 75% and a DC50 of more than 50 nM. Moreover, the IC50 in assay [3] is more than 10000 nM.

In the case of `Nc1ncnc2c1c(-c1ccc(Oc3ccccc3)cc1)nn2[C@@H]1CCCN(C(=O)N2CCC(CCCN3CCN(c4ccc5c(c4)CN(C4CCC(=O)NC4=O)C5=O)CC3)CC2)C1` (stereo partly drawn) [Compound 106, 3-(5-(4-(3-(1-((R)-3-(4-amino-3-(4-phenoxyphenyl)-1H-pyrazolo[3,4-d]pyrimidin-1-yl)piperidine-1-carbonyl)piperidin-4-yl)propyl)piperazin-1-yl)-1-oxoisoindolin-2-yl)piperidine-2,6-dione], the IC50 in assay [1] is more than 10000 nM. In assay [2], the maximal degradation (Dmax) was more than 75% and the DC50 is more than 50 nM. Moreover, the IC50 in assay [3] is more than 10000 nM.

In the case of `Nc1ncnc2c1c(-c1ccc(Oc3ccccc3)cc1)nn2[C@@H]1CCCN(C(=O)N2CCN(CCCN3CCN(c4ccc5c(c4)C(=O)N(C4CCC(=O)NC4=O)C5=O)CC3)CC2)C1` (stereo partly drawn) [Compound 107, 5-(4-(3-(4-((R)-3-(4-amino-3-(4-phenoxyphenyl)-1H-pyrazolo[3,4-d]pyrimidin-1-yl)piperidine-1-carbonyl)piperazin-1-yl)propyl)piperazin-1-yl)-2-(2,6-dioxopiperidin-3-yl)isoindoline-1,3-dione], in assay [1], the IC50 lay in the range of 1000 to 10000 nM. In assay [2], this compound yielded a Dmax of more than 75% and a DC50 of more than 50 nM. The IC50 in assay [3] was more than 10000 nM.

For `Nc1ncnc2c1c(-c1ccc(Oc3ccccc3)cc1)nn2[C@@H]1CCCN(C(=O)N2CCN(CCCN3CCN(c4ccc5c(c4)CN(C4CCC(=O)NC4=O)C5=O)CC3)CC2)C1` (stereo partly drawn) [Compound 108, 3-(5-(4-(3-(4-((R)-3-(4-amino-3-(4-phenoxyphenyl)-1H-pyrazolo[3,4-d]pyrimidin-1-yl)piperidine-1-carbonyl)piperazin-1-yl)propyl)piperazin-1-yl)-1-oxoisoindolin-2-yl)piperidine-2,6-dione], the IC50 in assay [1] is 1000 to 10000 nM. In assay [2], this compound yielded a Dmax of more than 75% and a DC50 of more than 50 nM. Also, the IC50 in assay [3] lay in the range of 1000 to 10000 nM.

With `Nc1ncnc2c1c(-c1ccc(Oc3ccccc3)cc1)nn2[C@@H]1CCCN(C(=O)N2CCN(CCCC3CCN(c4ccc5c(c4)C(=O)N(C4CCC(=O)NC4=O)C5=O)CC3)CC2)C1` (stereo partly drawn) [Compound 109, 5-(4-(3-(4-((R)-3-(4-amino-3-(4-phenoxyphenyl)-1H-pyrazolo[3,4-d]pyrimidin-1-yl)piperidine-1-carbonyl)piperazin-1-yl)propyl)piperidin-1-yl)-2-(2,6-dioxopiperidin-3-yl)isoindoline-1,3-dione], the IC50 in assay [1] and in assay [3] was more than 10000 nM throughout. This compound also gave a Dmax in assay [2] of more than 75%. In addition, the DC50 in assay [2] is more than 50 nM.

`Nc1ncnc2c1c(-c1ccc(Oc3ccccc3)cc1)nn2[C@@H]1CCCN(C(=O)N2CCN(CCCC3CCN(c4ccc5c(c4)CN(C4CCC(=O)NC4=O)C5=O)CC3)CC2)C1` (stereo partly drawn) [Compound 110, 3-(5-(4-(3-(4-((R)-3-(4-amino-3-(4-phenoxyphenyl)-1H-pyrazolo[3,4-d]pyrimidin-1-yl)piperidine-1-carbonyl)piperazin-1-yl)propyl)piperidin-1-yl)-1-oxoisoindolin-2-yl)piperidine-2,6-dione]: in assay [1], the IC50 was more than 10000 nM. Also, in assay [2], the Dmax is more than 75% and the DC50 is more than 50 nM. The IC50 in assay [3] is more than 10000 nM.

On to `Nc1ncnc2c1c(-c1ccc(Oc3ccccc3)cc1)nn2[C@@H]1CCCN(C(=O)N2CCN(CCCN3CCC(c4ccc5c(c4)C(=O)N(C4CCC(=O)NC4=O)C5=O)CC3)CC2)C1` (stereo partly drawn) [Compound 111, 5-(1-(3-(4-((R)-3-(4-amino-3-(4-phenoxyphenyl)-1H-pyrazolo[3,4-d]pyrimidin-1-yl)piperidine-1-carbonyl)piperazin-1-yl)propyl)piperidin-4-yl)-2-(2,6-dioxopiperidin-3-yl)isoindoline-1,3-dione], for which the IC50 in assay [1] fell in the range of 1000 to 10000 nM. For the same compound, in assay [2], the Dmax is more than 75% and the DC50 was more than 50 nM. Moreover, in assay [3], the IC50 is 1000 to 10000 nM.

On to `Nc1ncnc2c1c(-c1ccc(Oc3ccccc3)cc1)nn2[C@@H]1CCCN(C(=O)N2CCN(CCCN3CCC(c4ccc5c(c4)CN(C4CCC(=O)NC4=O)C5=O)CC3)CC2)C1` (stereo partly drawn) [Compound 112, 3-(5-(1-(3-(4-((R)-3-(4-amino-3-(4-phenoxyphenyl)-1H-pyrazolo[3,4-d]pyrimidin-1-yl)piperidine-1-carbonyl)piperazin-1-yl)propyl)piperidin-4-yl)-1-oxoisoindolin-2-yl)piperidine-2,6-dione], for which the IC50 in assay [1] was in the range of 1000 to 10000 nM. In assay [2], this compound gave a Dmax of more than 75% and a DC50 of more than 50 nM. In addition, the IC50 in assay [3] fell in the range of 1000 to 10000 nM.

For `Nc1ncnc2c1c(-c1ccc(Oc3ccccc3)cc1)nn2[C@@H]1CCCN(C(=O)N2CCC(CCCC3CCN(c4ccc5c(c4)C(=O)N(C4CCC(=O)NC4=O)C5=O)CC3)CC2)C1` (stereo partly drawn) [Compound 113, 5-(4-(3-(1-((R)-3-(4-amino-3-(4-phenoxyphenyl)-1H-pyrazolo[3,4-d]pyrimidin-1-yl)piperidine-1-carbonyl)piperidin-4-yl)propyl)piperidin-1-yl)-2-(2,6-dioxopiperidin-3-yl)isoindoline-1,3-dione], the IC50 in assay [1] is 1000 to 10000 nM. In assay [2], this compound showed a Dmax of more than 75% and a DC50 of more than 50 nM. In assay [3], the IC50 was more than 10000 nM.

As to `Nc1ncnc2c1c(-c1ccc(Oc3ccccc3)cc1)nn2[C@@H]1CCCN(C(=O)N2CCC(CCCC3CCN(c4ccc5c(c4)CN(C4CCC(=O)NC4=O)C5=O)CC3)CC2)C1` (stereo partly shown) [Compound 114], the IC50 in assay [1] was 1000 to 10000 nM. For the same compound, in assay [2], the Dmax was more than 75% and the DC50 is more than 50 nM. For the same compound, in assay [3], the IC50 was 1000 to 10000 nM.

The term Dmax denotes the greatest extent of degradation seen. The DC50 is the midpoint of the concentration-degradation curve. A higher DC50 goes with degradation only at high concentration.
